Data from patent publication US20250313564A1, “ACIDIC SALT OR CRYSTAL FORM OF NITROGEN-CONTAINING FUSED RING DERIVATIVE INHIBITOR, AND PREPARATION METHOD THEREFOR AND USE THEREOF” (SHANGHAI HANSOH BIOMEDICAL CO., LTD., priority 2022, published 2025).

Tests used:
[1] = test system: luteinizing hormone (LH) in plasma of bilaterally ovariectomized (OVX) rats; test: Effect on luteinizing hormone (LH) content in plasma of bilaterally ovariectomized (OVX) rats; assay type: in vivo; details: oral 30 mg/kg, plasma LH 0-8 h
From the text: The purpose of this test example is to measure the effect of compounds on luteinizing hormone (LH) in plasma of bilaterally ovariectomized (OVX) rats.
• CMCNa (30036365, Sinopharm Chemical Reagent Co., Ltd.); • Tween 80 (30189828, Sinopharm Chemical Reagent Co., Ltd.); • Rat LH ELISA Kit (S-type) purchased from Shibayagi Japan, with catalog number of AKRLH-010S, comprising Assay buffer C, Sample dilution buffer G, Washing buffer, biotinylated anti-LHα antibody, HRP-conjugated streptavidin and Chromogen (TMB).
Bilaterally ovariectomized SD rats, aged 10 weeks, female, purchased from Beijing Vital River Laboratory Animal Technology Co., Ltd. The animals were kept in SPF-grade animal room, with 5 SD rats/cage. […]
Sample detection: All reagents, samples and ELISA plates were transferred to room temperature 20° C.-25° C. and equilibrated for at least 30 min, and dissolution, vortex and centrifugation were performed for later use. […] The OD value of each well was read using the microplate reader at a wavelength of 450 nm.
Graphpad was used to draw a standard curve, and sample concentrations were calculated. If the dilution was performed during the sample detection, the calculated sample concentration needed to be multiplied by the corresponding dilution ratio in the final calculation, which was the actual concentration of the sample.

[2] = Stability of sample of crystal form A (illumination, high temperature, high humidity); assay type: physicochemical
Description: The free base crystal form A of compound 3 of the present invention was taken to prepare a sample, the sample was placed under the conditions of illumination 5000 lx, high temperature 60° C., high humidity 92.5% RH, and high temperature and high humidity 50° C. 75% RH, the 5-day stability and 10-day stability were investigated, a HPLC external standard method was used to determine the content, and a chromatographic peak area normalization method was used to calculate the change in related substances.

[3] = Hygroscopicity of sample of crystal form A; assay type: physicochemical
Description: The free base crystal form A of compound 3 was placed in saturated water vapor at different relative humidities to allow the compound to reach a dynamic equilibrium with the water vapor, and the percentage of weight gain after moisture absorption of the compound after equilibrium was calculated.

[4] = high humidity 92.5% RH, 10 days
[5] = high temperature 60° C., 5 days
[6] = high temperature 60° C., 10 days
[7] = high temperature and high humidity 50° C. 75% RH, 5 days
[8] = high temperature and high humidity 50° C. 75% RH, 10 days

| SMILES | ΣAUC (ΔLH/LH · h, Mean ± SD) [1] | % Increase in total impurity ([2]; high humidity 92.5% RH, 5 days) [%] | % Maximum increase in single impurity ([2]; high humidity 92.5% RH, 5 days) [%] | % Increase in total impurity [2, 4] [%] | % Maximum increase in single impurity [2, 4] [%] | % Increase in total impurity [2, 5] [%] | % Maximum increase in single impurity [2, 5] [%] | % Increase in total impurity [2, 6] [%] | % Maximum increase in single impurity [2, 6] [%] | % Increase in total impurity [2, 7] [%] | % Maximum increase in single impurity [2, 7] [%] | % Increase in total impurity [2, 8] [%] | % Maximum increase in single impurity [2, 8] [%] | % Increase in total impurity ([2]; illumination 5000 lx, 5 days) [%] | % Maximum increase in single impurity ([2]; illumination 5000 lx, 5 days) [%] | % Increase in total impurity ([2]; illumination 5000 lx, 10 days) [%] | % Maximum increase in single impurity ([2]; illumination 5000 lx, 10 days) [%] | crystal form change (XRPD) after moisture absorption and desorption ([3]; 2 cycles, 0-95% relative humidity) | hygroscopicity (in words) ([3]; RH 80%) | weight gain after moisture absorption ([3]; RH 80%) |
| --- | --- | --- | --- | --- | --- | --- | --- | --- | --- | --- | --- | --- | --- | --- | --- | --- | --- | --- | --- | --- |
| [2H]c1cc(C(=O)N2CCn3c(-c4nc(Cl)ns4)nnc3[C@H]2C)ccc1F [Compound 3, (R)-(3-(3-chloro-1,2,4-thiadiazol-5-yl)-8-methyl-5,6-dihydro-[1,2,4]triazolo[4,3-a]pyrazin-7(8H)-yl)(4-fluorophenyl-3-d)methanone] | −5.44 ± 3.02 ΔLH/LH · h |  |  |  |  |  |  |  |  |  |  |  |  |  |  |  |  |  |  |  |
| [2H]c1cc(C(=O)N2CCn3c(-c4nc(Cl)ns4)nnc3[C@H]2C)ccc1F [free base crystal form A, (R)-(3-(3-chloro-1,2,4-thiadiazol-5-yl)-8-methyl-5,6-dihydro-[1,2,4]triazolo[4,3-a]pyrazin-7(8H)-yl)(4-fluorophenyl-3-d)methanone] |  | <0.02 | 0.06 | <0.02 | 0.07 | 0.12 | 0.07 | <0.02 | 0.07 | <0.02 | 0.03 | <0.02 | <0.02 | <0.02 | 0.03 | <0.02 | 0.05 | no crystal form transformation | weak hygroscopicity | about 0.2720% |
